Experimental data as given in ChEMBL document CHEMBL1201862, “PubChem BioAssay data set” (2004).
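Briefly, cells in 96-well plates were exposed to five compound concentrations for 48 h, and endpoints were estimated by linear interpolation. At the GI50, growth is halved.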 Activity calls are given as the source filed them. No stated cut-off is given here; in the data, active = GI50 up to about 1.1 µM and inactive = higher.

How the values were obtained:
Experiment in all cases: DTP human tumour cell line panel, 48 h
[1] = tested on: A549
[2] = tested on: BT-549
[3] = tested on: COLO 205
[4] = tested on: DU-145
[5] = tested on: HCC 2998
[6] = tested on: HOP-62
[7] = tested on: Hs-578T
[8] = tested on: KM12
[9] = tested on: MDA-MB-435
[10] = tested on: NCI-H226
[11] = tested on: NCI/ADR-RES
[12] = tested on: OVCAR-3
[13] = tested on: SF-539
[14] = tested on: SK-MEL-28
[15] = tested on: SK-OV-3
[16] = tested on: SN12C
[17] = tested on: U-251
[18] = tested on: UACC-257
[19] = tested on: UACC-62

Measured: GI50

COc1ccccc1Cn1c2c(c3c(C(=O)NCCN(C)C)c(O)ccc31)C(=O)c1ccccc1C2=O
inactive: [1] 1.82 µM | [2] 7.13 µM | [3] 1.94 µM | [4] 1.81 µM | [5] 1.66 µM | [6] 1.92 µM | [7] 1.9 µM | [8] 1.59 µM | [9] 1.69 µM | [10] 10.4 µM | [11] 2.02 µM | [12] 1.99 µM | [13] 1.9 µM | [14] 1.71 µM | [15] 6.52 µM | [16] 1.94 µM | [17] 1.91 µM | [18] 1.79 µM | [19] 1.83 µM

COC(OC)[C@@H]1OC[C@@H](O)[C@@H]1n1cnc2c(N)ncnc21
inactive: [2] > 100 µM | [3] > 100 µM | [4] > 100 µM | [5] > 100 µM | [6] > 100 µM | [7] > 100 µM | [8] > 100 µM | [9] > 100 µM | [10] > 100 µM | [11] > 100 µM | [12] > 100 µM | [13] > 100 µM | [14] > 100 µM | [15] > 100 µM | [16] > 100 µM | [17] > 100 µM | [18] > 100 µM | [19] > 100 µM

N#CC(C#N)=C1C(=Cc2ccc(OCCCCCCCCCCSSCCCCCCCCCCOc3ccc(C=C4C(=C(C#N)C#N)c5ccccc5C4=C(C#N)C#N)cc3)cc2)C(=C(C#N)C#N)c2ccccc21
inactive: [1] 15.5 µM | [2] 17 µM | [4] 22 µM | [5] 14.7 µM | [6] 22.5 µM | [7] 20.4 µM | [8] 25.4 µM | [9] 38.7 µM | [10] 24 µM | [11] 19.3 µM | [12] 29.7 µM | [13] 16.1 µM | [14] 21.6 µM | [17] 19.5 µM | [18] 39.5 µM

COC(=O)[C@]1(c2cc3ccccc3n2S(=O)(=O)c2ccccc2)CC2CN(C(=O)OCc3ccccc3)C1C1OC(C)(C)OC21 (some centres not stated)
inactive: [1] 23.9 µM | [2] > 100 µM | [3] > 100 µM | [4] > 100 µM | [5] > 100 µM | [6] > 100 µM | [7] > 100 µM | [8] > 100 µM | [9] > 100 µM | [10] 93.1 µM | [11] > 100 µM | [12] > 100 µM | [14] 1.26 µM | [15] > 100 µM | [16] > 100 µM | [17] > 100 µM | [18] > 100 µM | [19] > 100 µM

CC1(C)Cc2c(c3ccccc3c3nc4c(nc23)c2c(c3ccccc34)OC(C)(C)C2)O1
inactive: [1] > 100 µM | [2] > 100 µM | [3] > 100 µM | [4] > 100 µM | [5] > 100 µM | [6] > 100 µM | [7] 39.4 µM | [8] > 100 µM | [9] > 100 µM | [11] > 100 µM | [12] > 100 µM | [13] > 100 µM | [14] > 100 µM | [15] > 100 µM | [16] > 100 µM | [17] > 100 µM | [18] > 100 µM | [19] > 100 µM

CCC[C@H](N[S+]([O-])c1ccc(C)cc1)C(C(=O)OCC)=C(c1ccccc1)c1ccccc1 (some centres not stated)
inactive: [1] 21.5 µM | [2] 21.2 µM | [3] 22.2 µM | [4] 18.9 µM | [5] 3.13 µM | [6] 19 µM | [7] 25.8 µM | [8] 18.6 µM | [9] 17.1 µM | [10] 26.1 µM | [11] 27.7 µM | [13] 22.9 µM | [14] 27.6 µM | [15] 24.6 µM | [16] 19.8 µM | [17] 16.2 µM | [18] 16.1 µM | [19] 13.4 µM

CC(=O)c1sc(=N)n(-c2c(C)cccc2C)c1C
inactive: [1] > 100 µM | [2] > 100 µM | [3] > 100 µM | [4] > 100 µM | [5] > 100 µM | [6] > 100 µM | [7] > 100 µM | [8] > 100 µM | [9] > 100 µM | [10] > 100 µM | [11] > 100 µM | [12] > 100 µM | [13] > 100 µM | [14] > 100 µM | [15] > 100 µM | [16] > 100 µM | [17] > 100 µM | [19] > 100 µM

COC(=O)C(COC(=O)/C=C/c1ccc(OC(C)=O)c(OC(C)=O)c1)OC(=O)/C=C/c1ccc(OC(C)=O)c(OC(C)=O)c1 (configuration not stated)
inactive: [1] 16.7 µM | [2] 15.1 µM | [3] 15.9 µM | [4] 12.1 µM | [5] 17.5 µM | [6] 10.2 µM | [7] 13.7 µM | [8] 12 µM | [9] 11 µM | [10] 24.5 µM | [11] 20 µM | [12] 6.32 µM | [13] 10.8 µM | [14] 15.5 µM | [16] 14.6 µM | [17] 4.62 µM | [18] 15.7 µM | [19] 16.8 µM

CC1=C(C#N)C(=O)N(/N=C/c2ccc(Cl)cc2)C(=O)/C1=c1\o/c(=C2/C(=O)N(/N=C/c3ccc(Cl)cc3)C(=O)C(C#N)=C2C)c2nccnc12
inactive: [1] > 100 µM | [2] > 100 µM | [3] > 100 µM | [4] > 100 µM | [5] 42.2 µM | [7] 21.2 µM | [8] 47.1 µM | [9] > 100 µM | [10] 78.2 µM | [11] > 100 µM | [12] > 100 µM | [13] > 100 µM | [14] > 100 µM | [15] > 100 µM | [16] > 100 µM | [17] > 100 µM | [18] > 100 µM | [19] > 100 µM

CC1=NN2C(=O)CC(=O)N=C2S1
inactive: [1] > 100 µM | [2] > 100 µM | [3] > 100 µM | [4] > 100 µM | [6] > 100 µM | [7] > 100 µM | [8] > 100 µM | [9] > 100 µM | [10] > 100 µM | [11] > 100 µM | [12] > 100 µM | [13] > 100 µM | [14] > 100 µM | [15] > 100 µM | [16] > 100 µM | [17] > 100 µM | [18] > 100 µM | [19] > 100 µM

NC(=O)NNC(=O)c1nc[nH]c1[N+](=O)[O-]
inactive: [1] > 100 µM | [2] > 100 µM | [3] > 100 µM | [4] > 100 µM | [5] > 100 µM | [6] > 100 µM | [7] > 100 µM | [9] > 100 µM | [10] > 100 µM | [11] > 100 µM | [12] > 100 µM | [13] > 100 µM | [14] > 100 µM | [15] > 100 µM | [16] > 100 µM | [17] > 100 µM | [18] > 100 µM | [19] > 100 µM

CC(C)=CCc1c(OC(=O)c2c(C)cc(O)cc2O)cc(CO)c(CO)c1O
inactive: [1] 6.43 µM | [2] 18.7 µM | [3] 17.9 µM | [4] 25.1 µM | [5] 16.4 µM | [7] 20.1 µM | [8] 16.2 µM | [9] 17.7 µM | [10] 34 µM | [11] 30.1 µM | [13] 18.6 µM | [14] 18.5 µM | [15] 16.2 µM | [16] 18.5 µM | [17] 17.5 µM | [18] 29.9 µM | [19] 15.2 µM

CCCCC(=O)c1c(O)ccc2c(C)cc(=O)oc12
inactive: [1] 73.3 µM | [2] 37.6 µM | [3] > 100 µM | [4] 64.9 µM | [5] 45.8 µM | [6] > 100 µM | [7] 29 µM | [8] > 100 µM | [9] > 100 µM | [10] > 100 µM | [11] 55.7 µM | [12] > 100 µM | [13] > 100 µM | [14] > 100 µM | [16] > 100 µM | [17] > 100 µM | [18] > 100 µM | [19] > 100 µM

CCC(=O)C(c1ccccc1)c1ccccn1 (configuration not stated)
inactive: [1] > 100 µM | [2] > 100 µM | [3] > 100 µM | [4] > 100 µM | [5] > 100 µM | [6] > 100 µM | [7] > 100 µM | [8] > 100 µM | [9] > 100 µM | [10] > 100 µM | [11] > 100 µM | [12] 13.8 µM | [14] > 100 µM | [15] > 100 µM | [16] > 100 µM | [17] > 100 µM | [18] > 100 µM | [19] > 100 µM

CCOC(=O)c1c2ccccc2n2c(=O)n(-c3ccccc3)nnc12
inactive: [1] 63.4 µM | [2] > 100 µM | [3] 40.7 µM | [4] > 100 µM | [5] 47.1 µM | [6] 27.5 µM | [7] > 100 µM | [8] 61 µM | [9] 18.7 µM | [10] > 40.2 µM | [11] > 58.3 µM | [12] 17.3 µM | [13] > 96.4 µM | [14] > 100 µM | [16] > 100 µM | [17] 98.4 µM | [18] > 33.3 µM | [19] 10.4 µM
